Laboratory results taken from ChEMBL document CHEMBL4507301 (2021).

What was measured:
[1] = molecular target: Serine/threonine-protein kinase ULK3 (Homo sapiens) (UniProt Q6PHR2); settings: Compound concentration 1000.0 nM
[2] = molecular target: Tyrosine-protein kinase JAK2 (Homo sapiens) (UniProt O60674); settings: Compound concentration 1000.0 nM
[3] = molecular target: Vascular endothelial growth factor receptor 3 (Homo sapiens) (UniProt P35916); settings: Compound concentration 1000.0 nM
[4] = molecular target: Tyrosine-protein kinase ABL1 (Homo sapiens) (UniProt P00519); settings: Compound concentration 1000.0 nM
[5] = molecular target: Mitogen-activated protein kinase kinase kinase 1 (Homo sapiens) (UniProt Q13233); settings: Compound concentration 1000.0 nM
[6] = molecular target: MAP/microtubule affinity-regulating kinase 4 (Homo sapiens) (UniProt Q96L34); settings: Compound concentration 1000.0 nM
Sequence of MAP/microtubule affinity-regulating kinase 4 (Homo sapiens) (Q96L34 whole entry): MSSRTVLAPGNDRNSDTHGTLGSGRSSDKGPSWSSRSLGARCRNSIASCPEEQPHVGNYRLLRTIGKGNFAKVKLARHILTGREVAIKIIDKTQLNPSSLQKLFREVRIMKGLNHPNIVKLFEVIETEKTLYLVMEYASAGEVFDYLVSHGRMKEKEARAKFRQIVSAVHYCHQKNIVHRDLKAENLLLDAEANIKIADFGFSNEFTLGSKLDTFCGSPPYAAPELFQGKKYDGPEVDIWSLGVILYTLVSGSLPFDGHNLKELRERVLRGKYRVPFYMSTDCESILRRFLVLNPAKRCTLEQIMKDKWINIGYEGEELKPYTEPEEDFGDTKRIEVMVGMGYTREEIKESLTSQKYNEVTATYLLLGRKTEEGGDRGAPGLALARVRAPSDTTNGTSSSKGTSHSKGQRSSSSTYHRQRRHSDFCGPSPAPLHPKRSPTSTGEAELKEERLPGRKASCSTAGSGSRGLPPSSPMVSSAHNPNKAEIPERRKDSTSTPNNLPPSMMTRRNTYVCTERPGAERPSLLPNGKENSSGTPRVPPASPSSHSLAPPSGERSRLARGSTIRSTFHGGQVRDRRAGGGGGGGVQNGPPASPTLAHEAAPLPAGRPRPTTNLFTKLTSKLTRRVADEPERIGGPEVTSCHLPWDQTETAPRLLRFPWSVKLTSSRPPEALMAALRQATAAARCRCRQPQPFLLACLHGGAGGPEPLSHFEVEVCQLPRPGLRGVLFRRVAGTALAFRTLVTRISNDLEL

[7] = molecular target: D(2) dopamine receptor (Homo sapiens) (UniProt P14416); settings: Compound concentration 10.0 uM
[8] = molecular target: Activin receptor type-2A (Homo sapiens) (UniProt P27037); settings: Compound concentration 1000.0 nM
[9] = molecular target: Cyclin-dependent kinase-like 3 (Homo sapiens) (UniProt Q8IVW4); settings: Compound concentration 1000.0 nM
[10] = molecular target: Mitogen-activated protein kinase 3 (Homo sapiens) (UniProt P27361); settings: Compound concentration 1000.0 nM
Sequence of Mitogen-activated protein kinase 3 (Homo sapiens) (P27361 whole entry): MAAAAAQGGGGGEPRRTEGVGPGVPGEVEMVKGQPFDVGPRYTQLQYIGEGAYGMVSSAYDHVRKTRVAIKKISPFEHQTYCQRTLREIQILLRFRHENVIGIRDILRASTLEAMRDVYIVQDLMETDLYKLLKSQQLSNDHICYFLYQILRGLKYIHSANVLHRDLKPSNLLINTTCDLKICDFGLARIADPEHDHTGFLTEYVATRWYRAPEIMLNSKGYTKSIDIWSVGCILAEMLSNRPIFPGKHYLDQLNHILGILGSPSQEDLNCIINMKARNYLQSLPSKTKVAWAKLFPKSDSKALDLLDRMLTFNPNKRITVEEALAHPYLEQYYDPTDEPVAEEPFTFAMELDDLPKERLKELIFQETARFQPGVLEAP

[11] = molecular target: Tyrosine-protein kinase JAK1 (Homo sapiens) (UniProt P23458); settings: Compound concentration 1000.0 nM
Sequence of Tyrosine-protein kinase JAK1 (Homo sapiens) (P23458 whole entry, canonical isoform): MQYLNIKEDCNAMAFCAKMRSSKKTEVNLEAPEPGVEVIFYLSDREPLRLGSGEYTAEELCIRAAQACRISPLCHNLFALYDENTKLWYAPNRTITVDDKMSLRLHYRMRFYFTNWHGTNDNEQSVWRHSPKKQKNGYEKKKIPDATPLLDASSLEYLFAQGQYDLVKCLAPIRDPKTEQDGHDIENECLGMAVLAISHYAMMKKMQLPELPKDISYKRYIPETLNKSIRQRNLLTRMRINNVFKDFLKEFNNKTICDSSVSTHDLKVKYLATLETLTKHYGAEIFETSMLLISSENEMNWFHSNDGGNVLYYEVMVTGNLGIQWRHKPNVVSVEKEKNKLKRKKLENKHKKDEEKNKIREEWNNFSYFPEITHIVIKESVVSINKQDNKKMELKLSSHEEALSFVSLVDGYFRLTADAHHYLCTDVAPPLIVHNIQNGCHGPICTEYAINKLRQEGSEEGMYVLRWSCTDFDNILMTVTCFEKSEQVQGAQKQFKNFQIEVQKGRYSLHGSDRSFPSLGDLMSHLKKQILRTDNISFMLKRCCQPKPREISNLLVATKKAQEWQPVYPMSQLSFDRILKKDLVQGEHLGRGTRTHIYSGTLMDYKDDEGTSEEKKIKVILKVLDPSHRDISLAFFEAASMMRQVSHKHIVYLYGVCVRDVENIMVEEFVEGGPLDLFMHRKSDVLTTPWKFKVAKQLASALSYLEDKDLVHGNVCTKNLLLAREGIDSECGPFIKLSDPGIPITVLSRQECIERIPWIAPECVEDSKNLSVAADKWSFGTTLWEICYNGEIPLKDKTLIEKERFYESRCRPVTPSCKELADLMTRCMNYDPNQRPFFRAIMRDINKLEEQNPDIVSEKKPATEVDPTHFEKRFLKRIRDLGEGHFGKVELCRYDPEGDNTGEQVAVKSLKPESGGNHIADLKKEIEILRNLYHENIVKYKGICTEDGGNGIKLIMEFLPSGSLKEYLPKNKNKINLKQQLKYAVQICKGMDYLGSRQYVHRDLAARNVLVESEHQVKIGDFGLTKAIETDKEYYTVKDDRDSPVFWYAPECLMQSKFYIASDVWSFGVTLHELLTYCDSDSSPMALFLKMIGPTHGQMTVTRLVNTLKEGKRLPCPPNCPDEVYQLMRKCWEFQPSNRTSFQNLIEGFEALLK

[12] = molecular target: Serine/threonine-protein kinase Nek11 (Homo sapiens) (UniProt Q8NG66); settings: Compound concentration 1000.0 nM
[13] = molecular target: Uncharacterized serine/threonine-protein kinase SBK3 (Homo sapiens) (UniProt P0C264); settings: Compound concentration 1000.0 nM
Sequence of Uncharacterized serine/threonine-protein kinase SBK3 (Homo sapiens) (P0C264 whole entry): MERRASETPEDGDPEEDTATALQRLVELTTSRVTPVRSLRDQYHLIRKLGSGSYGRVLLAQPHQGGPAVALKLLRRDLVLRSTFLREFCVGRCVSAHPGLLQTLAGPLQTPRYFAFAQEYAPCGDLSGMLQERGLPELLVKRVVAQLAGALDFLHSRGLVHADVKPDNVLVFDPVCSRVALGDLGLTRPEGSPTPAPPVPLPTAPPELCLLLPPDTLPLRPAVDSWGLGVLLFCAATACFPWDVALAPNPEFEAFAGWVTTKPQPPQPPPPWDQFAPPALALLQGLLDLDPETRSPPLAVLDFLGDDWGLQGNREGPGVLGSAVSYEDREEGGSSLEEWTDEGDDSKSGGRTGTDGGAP

[14] = test system: Receptor-type tyrosine-protein kinase FLT3 (Homo sapiens), P36888 [K663Q]; settings: Compound concentration 1000.0 nM
[15] = test system: Leucine-rich repeat serine/threonine-protein kinase 2 (Homo sapiens), Q5S007 [G2019S]; settings: Compound concentration 1000.0 nM
[16] = molecular target: Mitogen-activated protein kinase 1 (Homo sapiens) (UniProt P28482); settings: Compound concentration 1000.0 nM
[17] = molecular target: Calcium/calmodulin-dependent protein kinase kinase 2 (Homo sapiens) (UniProt Q96RR4); settings: Compound concentration 1000.0 nM
Sequence of Calcium/calmodulin-dependent protein kinase kinase 2 (Homo sapiens) (Q96RR4 2-588 limits assumed): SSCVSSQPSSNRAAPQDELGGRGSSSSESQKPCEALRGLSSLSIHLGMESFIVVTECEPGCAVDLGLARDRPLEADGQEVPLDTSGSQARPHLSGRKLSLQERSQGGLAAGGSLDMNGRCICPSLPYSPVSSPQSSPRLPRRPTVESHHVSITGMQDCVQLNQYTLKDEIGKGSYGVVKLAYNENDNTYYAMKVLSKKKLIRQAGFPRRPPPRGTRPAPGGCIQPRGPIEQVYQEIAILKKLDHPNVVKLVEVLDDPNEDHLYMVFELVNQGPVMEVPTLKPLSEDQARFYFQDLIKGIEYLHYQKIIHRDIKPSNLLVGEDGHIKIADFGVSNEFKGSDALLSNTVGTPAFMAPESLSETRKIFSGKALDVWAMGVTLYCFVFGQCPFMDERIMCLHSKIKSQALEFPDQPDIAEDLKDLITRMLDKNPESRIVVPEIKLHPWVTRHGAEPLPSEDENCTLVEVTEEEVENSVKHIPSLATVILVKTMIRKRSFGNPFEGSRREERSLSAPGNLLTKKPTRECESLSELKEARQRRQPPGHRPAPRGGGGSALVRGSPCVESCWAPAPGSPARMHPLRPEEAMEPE

[18] = molecular target: Serine/threonine-protein kinase D1 (Homo sapiens) (UniProt Q15139); settings: Compound concentration 1000.0 nM
[19] = molecular target: Cyclin-dependent kinase 8 (Homo sapiens) (UniProt P49336); settings: Compound concentration 1000.0 nM
Sequence of Cyclin-dependent kinase 8 (Homo sapiens) (P49336 whole entry): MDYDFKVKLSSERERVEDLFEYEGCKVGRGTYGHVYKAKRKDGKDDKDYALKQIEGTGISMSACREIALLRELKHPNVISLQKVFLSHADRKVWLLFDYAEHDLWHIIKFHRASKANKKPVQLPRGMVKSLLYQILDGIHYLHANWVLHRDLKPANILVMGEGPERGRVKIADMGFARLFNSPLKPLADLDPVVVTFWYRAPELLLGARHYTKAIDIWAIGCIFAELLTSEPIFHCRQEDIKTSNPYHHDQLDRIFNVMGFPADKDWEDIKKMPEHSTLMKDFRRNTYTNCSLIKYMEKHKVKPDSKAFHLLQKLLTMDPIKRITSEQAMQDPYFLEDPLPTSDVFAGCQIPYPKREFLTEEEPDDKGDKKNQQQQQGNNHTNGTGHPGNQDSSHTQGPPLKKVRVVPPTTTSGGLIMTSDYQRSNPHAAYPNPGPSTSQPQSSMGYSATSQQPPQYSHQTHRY

[20] = molecular target: Cyclin-G-associated kinase (Homo sapiens) (UniProt O14976); settings: Compound concentration 1000.0 nM
[21] = molecular target: Serine/threonine-protein kinase D3 (Homo sapiens) (UniProt O94806); settings: Compound concentration 1000.0 nM
[22] = molecular target: Mitogen-activated protein kinase kinase kinase 3 (Homo sapiens) (UniProt Q99759); settings: Compound concentration 1000.0 nM
[23] = molecular target: Mitogen-activated protein kinase 13 (Homo sapiens) (UniProt O15264); settings: Compound concentration 1000.0 nM
[24] = test system: Hepatocyte growth factor receptor (Homo sapiens), P08581 [M1250T]; settings: Compound concentration 1000.0 nM
[25] = molecular target: Mitogen-activated protein kinase kinase kinase kinase 5 (Homo sapiens) (UniProt Q9Y4K4); settings: Compound concentration 1000.0 nM
Sequence of Mitogen-activated protein kinase kinase kinase kinase 5 (Homo sapiens) (Q9Y4K4 whole entry, looked up): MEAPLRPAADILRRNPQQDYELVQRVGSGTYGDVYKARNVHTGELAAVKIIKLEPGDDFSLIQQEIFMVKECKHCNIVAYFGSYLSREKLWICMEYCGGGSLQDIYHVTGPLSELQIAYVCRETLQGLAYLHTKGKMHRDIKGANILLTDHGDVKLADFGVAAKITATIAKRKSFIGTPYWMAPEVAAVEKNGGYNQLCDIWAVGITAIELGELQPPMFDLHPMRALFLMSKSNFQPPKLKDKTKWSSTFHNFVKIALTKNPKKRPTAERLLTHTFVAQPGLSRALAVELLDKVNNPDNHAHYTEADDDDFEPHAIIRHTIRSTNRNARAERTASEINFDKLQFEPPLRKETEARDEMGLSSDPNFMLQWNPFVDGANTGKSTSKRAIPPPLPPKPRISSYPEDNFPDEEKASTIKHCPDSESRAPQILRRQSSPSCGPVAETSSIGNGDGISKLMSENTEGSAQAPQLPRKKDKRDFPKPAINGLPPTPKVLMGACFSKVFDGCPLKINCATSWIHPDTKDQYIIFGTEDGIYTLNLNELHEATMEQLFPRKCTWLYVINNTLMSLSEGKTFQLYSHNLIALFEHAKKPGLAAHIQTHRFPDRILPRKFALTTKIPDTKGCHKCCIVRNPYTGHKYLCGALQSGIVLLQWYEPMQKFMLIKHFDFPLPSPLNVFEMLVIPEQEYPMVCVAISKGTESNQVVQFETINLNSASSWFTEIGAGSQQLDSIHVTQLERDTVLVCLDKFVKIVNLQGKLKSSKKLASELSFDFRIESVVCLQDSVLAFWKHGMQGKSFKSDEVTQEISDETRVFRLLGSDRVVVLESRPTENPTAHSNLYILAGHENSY

[26] = molecular target: MAP kinase-activated protein kinase 5 (Homo sapiens) (UniProt Q8IW41); settings: Compound concentration 1000.0 nM
[27] = molecular target: Serine/threonine-protein kinase 36 (Homo sapiens) (UniProt Q9NRP7); settings: Compound concentration 1000.0 nM
[28] = test system: Phosphatidylinositol 4,5-bisphosphate 3-kinase catalytic subunit alpha isoform (Homo sapiens), P42336 [H1047L]; settings: Compound concentration 1000.0 nM
[29] = molecular target: Tyrosine-protein kinase JAK1 (Homo sapiens) (UniProt P23458); settings: Compound concentration 1000.0 nM; remark: listed apart in the source
[30] = test system: Phosphatidylinositol 4,5-bisphosphate 3-kinase catalytic subunit alpha isoform (Homo sapiens), P42336 [H1047Y]; settings: Compound concentration 1000.0 nM
[31] = molecular target: Dual specificity mitogen-activated protein kinase kinase 6 (Homo sapiens) (UniProt P52564); settings: Compound concentration 1000.0 nM
[32] = molecular target: cAMP-dependent protein kinase catalytic subunit alpha (Homo sapiens) (UniProt P17612); settings: Compound concentration 1000.0 nM
[33] = molecular target: 5-hydroxytryptamine receptor 2C (Homo sapiens) (UniProt P28335); settings: Compound concentration 10.0 uM
Sequence of 5-hydroxytryptamine receptor 2C (Homo sapiens) (P28335 whole entry): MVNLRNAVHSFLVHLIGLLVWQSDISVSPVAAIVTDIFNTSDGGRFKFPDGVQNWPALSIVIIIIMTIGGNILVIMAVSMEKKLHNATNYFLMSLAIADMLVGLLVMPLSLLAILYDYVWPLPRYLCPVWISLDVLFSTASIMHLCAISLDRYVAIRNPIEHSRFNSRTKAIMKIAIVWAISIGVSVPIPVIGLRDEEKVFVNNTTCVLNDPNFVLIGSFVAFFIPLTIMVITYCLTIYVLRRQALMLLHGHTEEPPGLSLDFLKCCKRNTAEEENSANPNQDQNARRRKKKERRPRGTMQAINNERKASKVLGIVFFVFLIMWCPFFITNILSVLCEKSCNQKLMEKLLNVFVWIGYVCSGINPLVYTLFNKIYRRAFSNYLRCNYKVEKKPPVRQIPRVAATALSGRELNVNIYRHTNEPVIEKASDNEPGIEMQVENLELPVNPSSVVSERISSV

[34] = molecular target: STE20/SPS1-related proline-alanine-rich protein kinase (Homo sapiens) (UniProt Q9UEW8); settings: Compound concentration 1000.0 nM
[35] = molecular target: Membrane-associated tyrosine- and threonine-specific cdc2-inhibitory kinase (Homo sapiens) (UniProt Q99640); settings: Compound concentration 1000.0 nM
[36] = molecular target: Atypical kinase COQ8A, mitochondrial (Homo sapiens) (UniProt Q8NI60); settings: Compound concentration 1000.0 nM
[37] = test system: Tyrosine-protein kinase ABL1 (Homo sapiens), P00519 [H396P]; settings: Compound concentration 1000.0 nM
[38] = molecular target: Receptor tyrosine-protein kinase erbB-2 (Homo sapiens) (UniProt P04626); settings: Compound concentration 1000.0 nM
[39] = molecular target: Vascular endothelial growth factor receptor 1 (Homo sapiens) (UniProt P17948); settings: Compound concentration 1000.0 nM
[40] = molecular target: Myosin-IIIb (Homo sapiens) (UniProt Q8WXR4); settings: Compound concentration 1000.0 nM
[41] = molecular target: Aurora kinase B (Homo sapiens) (UniProt Q96GD4); settings: Compound concentration 1000.0 nM
[42] = molecular target: Serine/threonine-protein kinase Nek3 (Homo sapiens) (UniProt P51956); settings: Compound concentration 1000.0 nM
[43] = test system: Receptor-type tyrosine-protein kinase FLT3 (Homo sapiens), P36888 [R834Q]; settings: Compound concentration 1000.0 nM
[44] = molecular target: Rho-associated protein kinase 2 (Homo sapiens) (UniProt O75116); settings: Compound concentration 1000.0 nM
[45] = molecular target: Ephrin type-A receptor 8 (Homo sapiens) (UniProt P29322); settings: Compound concentration 1000.0 nM

Question: Which results are given for `C[C@H](c1cccc(C#N)c1)n1cc(Cl)cc(C(N)=O)c1=N` [(R)-9s]?
Answer: residual activity [1]: 64%; residual activity [2]: 100%; residual activity [3]: 80%; residual activity [4]: 77%; residual activity [5]: 90%; residual activity [6]: 99%; inhibition [7]: 1.55%; residual activity [8]: 100%; residual activity [9]: 88%; residual activity [10]: 97%; residual activity [11]: 57%; residual activity [12]: 100%; residual activity [13]: 95%; residual activity [14]: 100%; residual activity [15]: 100%; residual activity [16]: 93%; residual activity [17]: 100%; residual activity [18]: 100%; residual activity [19]: 100%; residual activity [20]: 100%; residual activity [21]: 65%; residual activity [22]: 91%; residual activity [23]: 100%; residual activity [24]: 100%; residual activity [25]: 100%; residual activity [26]: 84%; residual activity [27]: 75%; residual activity [28]: 92%; residual activity [29]: 92%; residual activity [30]: 95%; residual activity [31]: 100%; residual activity [32]: 100%; inhibition [33]: 9.56%; residual activity [34]: 100%; residual activity [35]: 100%; residual activity [36]: 88%; residual activity [37]: 55%; residual activity [38]: 100%; residual activity [39]: 100%; residual activity [40]: 92%; residual activity [41]: 100%; residual activity [42]: 66%; residual activity [43]: 100%; residual activity [44]: 94%; residual activity [45]: 95%

Question: Which residual activity [1] does the source give for `C[C@@H](c1cccc(C#N)c1)n1cc(Cl)cc(C(N)=O)c1=N` [(S)-9s] here?
Answer: Its residual activity is 75%.

Question: And the residual activity [2]?
Answer: Its residual activity is 100%.

Question: And the residual activity [3]?
Answer: Its residual activity is 89%.

Question: What about the residual activity [4] of the same compound?
Answer: Its residual activity is 73%.

Question: And the residual activity [5]?
Answer: Its residual activity is 82%.

Question: What about the residual activity [6] of the same compound?
Answer: The residual activity was 100%.

Question: What about the inhibition [7] of the same compound?
Answer: Its inhibition is -3.06%.

Question: And the residual activity [8]?
Answer: The residual activity was 100%.

Question: And the residual activity [9]?
Answer: Its residual activity is 85%.

Question: What about the residual activity [10] of the same compound?
Answer: Its residual activity is 100%.

Question: What about the residual activity [11] of the same compound?
Answer: Its residual activity is 94%.

Question: And the residual activity [12]?
Answer: The residual activity was 92%.

Question: And the residual activity [13]?
Answer: The residual activity was 95%.

Question: What about the residual activity [14] of the same compound?
Answer: The residual activity was 92%.

Question: What about the residual activity [15] of the same compound?
Answer: Its residual activity is 100%.

Question: And the residual activity [16]?
Answer: The residual activity was 82%.

Question: And the residual activity [17]?
Answer: Its residual activity is 100%.

Question: What about the residual activity [18] of the same compound?
Answer: The residual activity was 90%.

Question: What about the residual activity [19] of the same compound?
Answer: The residual activity was 92%.

Question: What about the residual activity [20] of the same compound?
Answer: The residual activity was 100%.

Question: What about the residual activity [21] of the same compound?
Answer: The residual activity was 100%.

Question: And the residual activity [22]?
Answer: The residual activity was 95%.

Question: What about the residual activity [23] of the same compound?
Answer: Its residual activity is 98%.

Question: And the residual activity [24]?
Answer: Its residual activity is 99%.

Question: And the residual activity [25]?
Answer: Its residual activity is 96%.

Question: What about the residual activity [26] of the same compound?
Answer: The residual activity was 93%.

Question: What about the residual activity [27] of the same compound?
Answer: Its residual activity is 94%.

Question: And the residual activity [28]?
Answer: Its residual activity is 96%.

Question: What about the residual activity [29] of the same compound?
Answer: The residual activity was 93%.

Question: What about the residual activity [30] of the same compound?
Answer: The residual activity was 100%.

Question: What about the residual activity [31] of the same compound?
Answer: Its residual activity is 100%.

Question: What about the residual activity [32] of the same compound?
Answer: Its residual activity is 100%.

Question: And the inhibition [33]?
Answer: Its inhibition is 16.8%.

Question: And the residual activity [34]?
Answer: The residual activity was 100%.

Question: And the residual activity [35]?
Answer: Its residual activity is 100%.

Question: And the residual activity [36]?
Answer: The residual activity was 89%.

Question: And the residual activity [37]?
Answer: Its residual activity is 54%.

Question: And the residual activity [38]?
Answer: The residual activity was 96%.

Question: What about the residual activity [39] of the same compound?
Answer: The residual activity was 100%.

Question: What about the residual activity [40] of the same compound?
Answer: Its residual activity is 100%.

Question: What about the residual activity [41] of the same compound?
Answer: The residual activity was 100%.

Question: What about the residual activity [42] of the same compound?
Answer: Its residual activity is 44%.

Question: What about the residual activity [43] of the same compound?
Answer: The residual activity was 100%.

Question: What about the residual activity [44] of the same compound?
Answer: Its residual activity is 90%.

Question: What about the residual activity [45] of the same compound?
Answer: The residual activity was 90%.
